Biological target: human NaV subtype, like NaV 1.7 (Homo sapiens, UniProt Q15858)
Assay: E-VIPR optical membrane potential assay with electrical stimulation
Type: cell-based
Conditions: active against one or more sodium channels; Table 3 does not name the assay or NaV subtype; read-out: Binned Activity Data (IC50)

Sequence of human NaV subtype, like NaV 1.7 (Q15858 whole entry): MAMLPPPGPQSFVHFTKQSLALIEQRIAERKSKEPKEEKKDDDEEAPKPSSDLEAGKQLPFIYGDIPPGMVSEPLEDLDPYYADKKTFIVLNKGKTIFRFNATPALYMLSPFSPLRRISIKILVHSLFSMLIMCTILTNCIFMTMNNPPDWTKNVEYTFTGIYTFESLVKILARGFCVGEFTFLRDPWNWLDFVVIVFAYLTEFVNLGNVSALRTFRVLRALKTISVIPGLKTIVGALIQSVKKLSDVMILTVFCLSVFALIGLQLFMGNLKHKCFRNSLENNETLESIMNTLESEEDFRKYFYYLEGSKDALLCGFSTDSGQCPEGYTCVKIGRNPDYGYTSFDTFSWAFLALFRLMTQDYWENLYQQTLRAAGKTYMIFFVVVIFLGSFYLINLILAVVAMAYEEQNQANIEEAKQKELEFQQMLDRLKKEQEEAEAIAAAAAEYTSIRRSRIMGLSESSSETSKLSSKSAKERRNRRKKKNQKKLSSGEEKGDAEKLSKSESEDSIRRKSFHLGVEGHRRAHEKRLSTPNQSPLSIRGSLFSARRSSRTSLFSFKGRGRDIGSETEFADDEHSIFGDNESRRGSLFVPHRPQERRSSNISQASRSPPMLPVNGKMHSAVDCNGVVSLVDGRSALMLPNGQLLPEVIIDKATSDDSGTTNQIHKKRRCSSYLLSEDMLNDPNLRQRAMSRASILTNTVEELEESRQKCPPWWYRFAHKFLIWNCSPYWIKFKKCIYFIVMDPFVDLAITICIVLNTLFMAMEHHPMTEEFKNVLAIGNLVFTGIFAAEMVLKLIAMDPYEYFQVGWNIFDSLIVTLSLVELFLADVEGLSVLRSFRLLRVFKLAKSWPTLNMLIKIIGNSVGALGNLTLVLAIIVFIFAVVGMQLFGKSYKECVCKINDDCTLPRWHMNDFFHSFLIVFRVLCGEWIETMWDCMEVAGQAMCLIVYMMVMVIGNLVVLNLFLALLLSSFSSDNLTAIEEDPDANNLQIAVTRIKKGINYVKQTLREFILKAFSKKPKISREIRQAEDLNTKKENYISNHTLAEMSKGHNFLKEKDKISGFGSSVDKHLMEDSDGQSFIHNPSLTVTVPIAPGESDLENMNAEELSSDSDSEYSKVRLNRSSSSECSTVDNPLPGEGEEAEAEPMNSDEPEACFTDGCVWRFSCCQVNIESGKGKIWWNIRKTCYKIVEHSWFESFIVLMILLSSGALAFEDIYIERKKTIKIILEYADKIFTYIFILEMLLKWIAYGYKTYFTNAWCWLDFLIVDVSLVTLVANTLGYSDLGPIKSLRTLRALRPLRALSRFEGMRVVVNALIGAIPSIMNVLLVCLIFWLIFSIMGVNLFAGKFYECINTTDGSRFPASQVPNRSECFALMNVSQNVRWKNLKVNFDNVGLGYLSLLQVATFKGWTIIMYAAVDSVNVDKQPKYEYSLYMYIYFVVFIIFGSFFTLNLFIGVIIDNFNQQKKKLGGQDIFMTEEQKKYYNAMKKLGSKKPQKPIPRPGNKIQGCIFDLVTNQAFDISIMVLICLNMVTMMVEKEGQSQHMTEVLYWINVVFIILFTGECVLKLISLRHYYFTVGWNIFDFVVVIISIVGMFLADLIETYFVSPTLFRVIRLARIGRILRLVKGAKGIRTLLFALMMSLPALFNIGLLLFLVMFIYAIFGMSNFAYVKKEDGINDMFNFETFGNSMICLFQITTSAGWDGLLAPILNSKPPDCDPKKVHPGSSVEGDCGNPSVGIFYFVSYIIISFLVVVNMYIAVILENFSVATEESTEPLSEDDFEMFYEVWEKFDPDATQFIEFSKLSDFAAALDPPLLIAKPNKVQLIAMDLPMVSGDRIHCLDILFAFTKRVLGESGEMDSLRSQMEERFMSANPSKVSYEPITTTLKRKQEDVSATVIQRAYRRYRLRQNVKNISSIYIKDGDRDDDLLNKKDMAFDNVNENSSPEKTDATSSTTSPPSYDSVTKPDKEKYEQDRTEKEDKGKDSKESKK

Compound | IC50 [nM]
Cc1cc(C(=O)N2CCC3(CC2)c2ccc(C(F)(F)F)n2CCN3C)ccc1OC(C)C [Compound 580] | ≤ 2000
CN1CCn2c(C(F)(F)F)ccc2C12CCN(C(=O)c1ccnc(N3CCCCC3)c1)CC2 [Compound 581] | 2000 to 5000
CN1CCn2c(C(=O)C(F)(F)F)ccc2C12CCN(C(=O)c1ccc(N3CCCCC3)cc1)CC2 [Compound 582] | ≤ 2000
Cc1cc(C(=O)N2CCC3(CC2)c2ccc(C(F)(F)F)n2CCN3C)ccc1OCCCO [Compound 583] | ≤ 2000
CN1CCn2c(C(F)(F)F)ccc2C12CCN(C(=O)c1ccc(S(=O)(=O)NC3CC3)cc1)CC2 [Compound 584] | ≤ 2000
CN1CCn2c(C(=O)C3(C)CC3)ccc2C12CCN(C(=O)c1ccc(COCCC(F)(F)F)cc1)CC2 [Compound 585] | ≤ 2000
CCCOc1ccc(C(=O)N2CCC3(CC2)c2ccc(C(C)=O)n2CCN3C)cc1OC [Compound 586] | 2000 to 5000
CN1CCn2c(ccc2C(F)(F)C(F)(F)F)C12CCN(C(=O)c1ccc(C3(O)CCCC3)cc1)CC2 [Compound 587] | ≤ 2000
CC(C)Oc1ccc(C(=O)N2CCC3(CC2)c2cc(C(=O)C(F)(F)F)cn2C(C)(C)CN3C)cc1Cl [Compound 588] | > 5000
COc1cc(C(=O)N2CCC3(CC2)NC(C)(C)Cn2c(C(=O)C(F)(F)F)ccc23)ccc1-c1ccccc1 [Compound 589] | ≤ 2000
CCCOc1ccc(C(=O)N2CCC3(CC2)c2ccc(Cl)n2CCN3C)cc1 [Compound 590] | 2000 to 5000
CCC(=O)c1ccc2n1CCN(C)C21CCN(C(=O)c2ccc(C(C)(C)O)c(C)c2)CC1 [Compound 591] | ≤ 2000
CCCCOc1ccc(C(=O)N2CCC3(CC2)c2ccc(C(=O)C(F)(F)F)n2CCN3C)cc1 [Compound 592] | ≤ 2000
Cc1cc(C(=O)N2CCC3(CC2)c2ccc(CC(F)(F)F)n2CCN3C)ccc1C(C)(C)O [Compound 593] | ≤ 2000
COc1cc(C(=O)N2CCC3(CC2)NCCn2c(C(F)(F)F)ccc23)ccc1O [Compound 594] | > 5000
COc1ccc(C(=O)N2CCC3(CC2)NCC(C)n2c(C(=O)C(F)(F)F)ccc23)cc1C (centres unmarked) [Compound 595] | ≤ 2000
COc1ccc(C(=O)N2CCC3(CC2)c2ccc(C(=O)C(F)(F)F)n2C(C)(C)CN3C)cc1C(F)(F)F [Compound 596] | > 5000
Cc1ccc(C(=O)N2CCC3(CC2)c2ccc(C(=O)C(F)(F)F)n2CCN3C)cc1O [Compound 597] | > 5000
Cc1cc(C(=O)N2CCC3(CC2)NC(C)(C)Cn2c(C(F)(F)F)ccc23)ccc1OC(C)C [Compound 598] | ≤ 2000
CC(C)Oc1ccc(C(=O)N2CCC3(CC2)c2ccc(Cl)n2CCN3C)cc1C(F)(F)F [Compound 599] | ≤ 2000
CC1CCN(S(=O)(=O)c2ccc(C(=O)N3CCC4(CC3)c3ccc(C(=O)C(F)(F)F)n3CCN4C)cc2)CC1 [Compound 600] | ≤ 2000
Cc1cc(C(=O)N2CCC3(CC2)c2ccc(C(=O)C(C)(C)C)n2CCN3C)ccc1O [Compound 601] | ≤ 2000
CC(C)Oc1ccc(C(=O)N2CCC3(CC2)c2c(Cl)cc(C(F)(F)F)n2CCN3C)c(F)c1 [Compound 602] | ≤ 2000
O=C(c1ccccc1-c1ccccc1)N1CCC2(CC1)NCCn1c(C(F)(F)F)ccc12 [Compound 603] | > 5000
CC(=O)c1ccc2n1CCN(C)C21CCN(C(=O)c2ccc(OCc3ccccc3)cc2)CC1 [Compound 604] | ≤ 2000

Compound | IC50 [nM]
COc1ncc(F)cc1C(=O)N1CCC2(CC1)c1ccc(C(F)(F)F)n1CCN2C [Compound 605] | > 5000
CCCOc1cc(C(=O)N2CCC3(CC2)c2ccc(C(C)=O)n2CCN3C)ccc1OC [Compound 606] | > 5000
CCC(=O)c1ccc2n1CCN(C)C21CCN(C(=O)c2ccc(OC(C)C)c(OC)c2)CC1 [Compound 607] | 2000 to 5000
COc1ccc(C(=O)N2CCC3(CC2)c2ccc(C(=O)C(F)(F)F)n2C[C@H](C)N3C)cc1Cl [Compound 608] | ≤ 2000
CC[C@H](C)Oc1ccc(C(=O)N2CCC3(CC2)c2ccc(C(C)=O)n2CCN3C)cc1OC [Compound 609] | 2000 to 5000
CC(=O)c1ccc2n1CC(C)(C)NC21CCN(C(=O)c2ccc(OC(C)C)c(C(F)(F)F)c2)CC1 [Compound 610] | ≤ 2000
CC(C)CCOc1ccc(C(=O)N2CCC3(CC2)NCC(C)n2c(C(=O)C(F)(F)F)ccc23)nc1 (centres unmarked) [Compound 611] | ≤ 2000
COc1ccc(C(=O)N2CCC3(CC2)NC(C)(C)Cn2c(C(=O)C(F)(F)F)ccc23)cc1C [Compound 612] | ≤ 2000
COc1ccc(C(=O)N2CCC3(CC2)NC(C)(C)Cn2c(C(C)=O)ccc23)cc1C [Compound 613] | > 5000
COc1cc(C(=O)N2CC[C@@]3(C[C@@H]2C)c2ccc(C(F)(F)F)n2CCN3C)ccc1OC(C)C [Compound 614] | > 5000
COCC#Cc1ccc(C(=O)N2CCC3(CC2)c2ccc(C(C)=O)n2CCN3C)cc1F [Compound 615] | > 5000
CN1CCn2c(C(F)(F)F)cc(F)c2C12CCN(C(=O)c1ccc(C(C)(C)O)c(F)c1)CC2 [Compound 616] | ≤ 2000
CC(C)Oc1ccc(C(=O)N2CCC3(CC2)c2ccc(C(=O)C(C)(C)C)n2CCN3C)cc1C(F)(F)F [Compound 617] | ≤ 2000
CCOc1cc(C(=O)N2CCC3(CC2)NCCn2c(C(F)(F)F)ccc23)ccc1OC [Compound 618] | > 5000
CC(C)Oc1ccc(C(=O)N2CCC3(CC2)c2ccc(C(=O)C(C)(C)C)n2CCN3C)cc1F [Compound 619] | ≤ 2000
CC(C)C(=O)c1ccc2n1CCN(C)C21CCN(C(=O)c2ccc(O)c(Cl)c2)CC1 [Compound 620] | 2000 to 5000
Cc1cc(C(=O)N2CCC3(CC2)c2ccc(C(=O)C(F)(F)F)n2CCN3C)ccc1-c1cnc(N(C)C)nc1 [Compound 621] | ≤ 2000
COc1cc(C(=O)N2CCC3(CC2)c2ccc(C(=O)N4CCC(C(C)C)CC4)n2CCN3C)ccc1OC(C)C [Compound 622] | 2000 to 5000
CC(=O)c1ccc2n1CCN(C)C21CCN(C(=O)c2ccc(COCCC(F)(F)F)cc2)CC1 [Compound 623] | ≤ 2000
COc1ccc(C(=O)N2CCC3(CC2)c2ccc(Cl)n2CCN3C)cc1C(F)(F)F [Compound 624] | 2000 to 5000
CN1CCn2c(Cl)ccc2C12CCN(C(=O)c1ccc(C(C)(C)C)cc1)CC2 [Compound 625] | > 5000
CN1CCn2c(Cl)ccc2C12CCN(C(=O)c1ccc(C3CCCCC3)cc1)CC2 [Compound 626] | ≤ 2000
CN1CCn2c(C(=O)C3CC3)ccc2C12CCN(C(=O)c1ccc(COCCC(F)(F)F)cc1)CC2 [Compound 627] | ≤ 2000
CCN(C)c1ccnc2c(C(=O)N3CCC4(CC3)c3ccc(C(F)(F)F)n3CCN4C)cnn12 [Compound 628] | ≤ 2000
CCc1ccc(C(=O)N2CCC3(CC2)c2ccc(C(F)(F)F)n2CCN3C)cc1OC [Compound 629] | ≤ 2000

Compound | IC50 [nM]
Cc1cc(C(=O)N2CC[C@@]3(c4ccc(C(F)(F)F)n4CCN3C)[C@H](F)C2)ccc1C(C)(C)O [Compound 630] | ≤ 2000
CN1CCn2c(C(O)C(F)(F)F)ccc2C12CCN(C(=O)c1ccc(C3CCCCC3)cc1)CC2 (centres unmarked) [Compound 631] | > 5000
Cc1cc(C(=O)N2CCC3(CC2)c2ccc(C(=O)c4ccccc4)n2CCN3C)ccc1O [Compound 632] | ≤ 2000
COc1ccc(C(=O)N2CCC3(CC2)NC(C)(C)Cn2c(C(C)=O)ccc23)cc1C(F)(F)F [Compound 633] | > 5000
Cc1cc(C(=O)N2CCC3(CC2)c2ccc(C(F)(F)F)n2CCN3C(=O)N(C)C)ccc1C(C)(C)O [Compound 634] | > 5000
CN1CCn2c(C(=O)C(F)(F)F)ccc2C12CCN(C(=O)c1ccc(O)c(Cl)c1)CC2 [Compound 635] | 2000 to 5000
CCOc1ccc(C(=O)N2CCC3(CC2)NC(C)(C)Cn2c(C(=O)C(F)(F)F)ccc23)cc1Cl [Compound 636] | ≤ 2000
CN1CCn2c(C(F)(F)F)ccc2C12CCN(C(=O)c1ccc(OCC(C)(C)O)cc1)CC2 [Compound 637] | 2000 to 5000
CN1CCn2c(C(=O)C(F)(F)F)ccc2C12CCN(C(=O)c1ccc(C3CCCCC3)cn1)CC2 [Compound 638] | ≤ 2000
CC(C)Oc1ccc(C(=O)N2CCC3(CC2)c2ccc(C(=O)C4CC4)n2CCN3C)cc1Cl [Compound 639] | ≤ 2000
COCCOc1ccc(C(=O)N2CCC3(CC2)c2ccc(C(=O)C(F)(F)F)n2CCN3C)cc1OC [Compound 640] | 2000 to 5000
CN1CCn2c(C(=O)C(C)(C)C)ccc2C12CCN(C(=O)c1ccc(O)c(Cl)c1)CC2 [Compound 641] | ≤ 2000
Cc1cc(C(=O)N2CC[C@@]3(c4ccc(C(F)(F)F)n4CCN3C)[C@H](F)C2)ccc1OC(C)C [Compound 642] | ≤ 2000
CC(=O)c1ccc2n1CC(C)(C)NC21CCN(C(=O)c2ccc(C3CCCCC3)cc2)CC1 [Compound 643] | ≤ 2000
CN1CCn2c(C(=O)C3(C)CC3)ccc2C12CCN(C(=O)c1ccc(S(=O)(=O)C(F)(F)F)cc1)CC2 [Compound 644] | ≤ 2000
CN1CCn2c(C(=O)C(F)(F)F)ccc2C12CCN(C(=O)c1ccc(OC3CCOCC3)cc1)CC2 [Compound 645] | ≤ 2000
CC(C)CCOc1ccc(C(=O)N2CCC3(CC2)c2ccc(C(=O)C(F)(F)F)n2C(C)CN3C)cc1 (centres unmarked) [Compound 646] | ≤ 2000
Cc1cc(C(=O)N2CCC3(CC2)c2ccc(C(F)(F)C(F)(F)F)n2CCN3C)ccc1C(C)(C)O [Compound 647] | ≤ 2000
Cc1nc(C(=O)N2CCC3(CC2)c2ccc(Cl)n2CCN3C)ccc1OC(C)C [Compound 648] | ≤ 2000
C[C@H]1Cn2c(C(=O)C(F)(F)F)ccc2C2(CCN(C(=O)c3ccc(S(=O)(=O)C(F)(F)F)cc3)CC2)N1C [Compound 649] | ≤ 2000
COc1cc(C(=O)N2CCC3(CC2)c2ccc(Cl)n2CCN3C)ccc1OCCOC(F)(F)F [Compound 650] | ≤ 2000
CN(C)c1ncccc1C(=O)N1CCC2(CC1)c1ccc(C(F)(F)F)n1CCN2C [Compound 652] | > 5000
CC(=O)Nc1ccc(-c2ccc(C(=O)N3CCC4(CC3)c3ccc(C(=O)C(F)(F)F)n3CCN4C)cc2C)cn1 [Compound 653] | 2000 to 5000
Cc1cc(C(=O)N2CCC3(CC2)c2ccc(C(=O)C(C)(C)C)n2CCN3C)ccc1S(=O)(=O)C(C)C [Compound 654] | ≤ 2000
